Consider 19 molecules from US20260306527A1, “PRMT INHIBITOR COMPOUNDS AND THE USES THEREOF” (Purdue Research Foundation, priority 2023, published 2026).

Type in all cases: biochemical
For one assay, the target named is T1, PRMT1 (Homo sapiens, UniProt Q99873).
T1 construct: made in house
As to the kind of experiment: SAHH-coupled fluorescence assay, inhibition of PRMT1. The procedure, abridged:
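PRMT1 (0.1 μM) was run with 10 μM AdoMet, 5 μM SAHH and 10 μM ThioGlo4 in 2.5 mM HEPES pH 7.0, 25 mM NaCl, 25 μM EDTA, 50 μM TCEP and 0.01% Triton X-100. Fluorescence (ex 400/em 465 nm) was monitored for 15 min. Assays were done in duplicate.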

The target in a further assay is T2, PRMT4 (Homo sapiens, UniProt Q86X55).
T2 sequence (Q86X55 1-608): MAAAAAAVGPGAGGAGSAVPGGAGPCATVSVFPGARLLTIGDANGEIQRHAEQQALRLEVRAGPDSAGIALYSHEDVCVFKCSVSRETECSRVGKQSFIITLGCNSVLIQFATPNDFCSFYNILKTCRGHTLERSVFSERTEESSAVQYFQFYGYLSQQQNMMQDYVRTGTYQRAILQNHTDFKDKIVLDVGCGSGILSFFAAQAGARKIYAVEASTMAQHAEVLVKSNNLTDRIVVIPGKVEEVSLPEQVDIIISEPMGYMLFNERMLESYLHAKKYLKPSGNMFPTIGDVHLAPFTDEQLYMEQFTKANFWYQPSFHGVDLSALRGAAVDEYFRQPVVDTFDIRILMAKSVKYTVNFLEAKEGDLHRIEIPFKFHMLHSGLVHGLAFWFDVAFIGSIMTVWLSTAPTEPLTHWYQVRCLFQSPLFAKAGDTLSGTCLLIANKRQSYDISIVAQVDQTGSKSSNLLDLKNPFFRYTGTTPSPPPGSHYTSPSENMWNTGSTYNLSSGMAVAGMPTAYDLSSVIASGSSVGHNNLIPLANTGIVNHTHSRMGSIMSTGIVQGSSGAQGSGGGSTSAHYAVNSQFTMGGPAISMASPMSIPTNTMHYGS
As to the kind of experiment: radioactive assay (Reaction Biology Corp.), inhibition of PRMT4. The procedure: (§1) Next, the inhibition activity of the library was investigated for five PRMT members from type I PRMTs.
(§2) The PRMT 4, 6 and 8 methylation assays were performed by Reaction Biology corp.

The target in another assay is PRMT6 (Homo sapiens, UniProt Q96LA8). The assay can be described thus: radioactive assay (Reaction Biology Corp.), inhibition of PRMT6. How it is done: as §1, §2
Chain of PRMT6 (Q96LA8 whole entry, species assumed): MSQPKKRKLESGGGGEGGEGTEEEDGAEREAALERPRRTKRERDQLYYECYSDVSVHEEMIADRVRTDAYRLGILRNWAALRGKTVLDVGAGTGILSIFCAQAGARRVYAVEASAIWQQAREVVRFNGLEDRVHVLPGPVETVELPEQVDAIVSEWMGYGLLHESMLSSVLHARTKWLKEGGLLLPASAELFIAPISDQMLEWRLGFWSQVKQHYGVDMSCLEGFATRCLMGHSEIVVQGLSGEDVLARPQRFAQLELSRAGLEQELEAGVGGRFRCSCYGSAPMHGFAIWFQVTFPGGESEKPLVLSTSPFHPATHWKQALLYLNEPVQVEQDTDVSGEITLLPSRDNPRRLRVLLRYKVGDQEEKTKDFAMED
For another assay, the target named is PRMT8 (Homo sapiens, UniProt Q9NR22). The assay can be described thus: radioactive assay (Reaction Biology Corp.), inhibition of PRMT8. The procedure:
as §1, §2

In another assay the target is PRMT3 (Homo sapiens, UniProt O60678). As to the kind of experiment: SAHH-coupled fluorescence assay, inhibition of PRMT3. Set-up: PRMT3 (residues 211-531) was cloned into the pET28a-MHL expression vector; tag of the pET28a-MHL vector (not described); made in house; host or cells: Escherichia coli BL21(DE3). The procedure, abridged: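 Coupled SAHH/ThioGlo4 fluorescence read-out (ex 380 nm, em 505 nm) of PRMT3 (0.25 μM) methylation with 30 μM AdoMet and 5 μM SAHH. Buffer was 20 mM Tris pH 7.5 with 0.01% Triton X-100. Run in duplicate.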
Chain of PRMT3 (O60678 211-531): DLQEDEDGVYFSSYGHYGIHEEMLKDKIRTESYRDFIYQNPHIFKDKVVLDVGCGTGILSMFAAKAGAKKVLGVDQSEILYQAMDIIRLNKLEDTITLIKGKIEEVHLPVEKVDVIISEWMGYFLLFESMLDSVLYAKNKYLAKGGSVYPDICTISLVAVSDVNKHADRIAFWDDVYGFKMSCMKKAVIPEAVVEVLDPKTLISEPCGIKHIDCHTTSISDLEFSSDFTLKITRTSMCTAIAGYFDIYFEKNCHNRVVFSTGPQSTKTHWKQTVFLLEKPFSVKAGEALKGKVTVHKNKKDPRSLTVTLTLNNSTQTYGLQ

Read-outs that look alike come from different tables or passages of the source.

T1 sequence (Q99873 whole entry, species assumed): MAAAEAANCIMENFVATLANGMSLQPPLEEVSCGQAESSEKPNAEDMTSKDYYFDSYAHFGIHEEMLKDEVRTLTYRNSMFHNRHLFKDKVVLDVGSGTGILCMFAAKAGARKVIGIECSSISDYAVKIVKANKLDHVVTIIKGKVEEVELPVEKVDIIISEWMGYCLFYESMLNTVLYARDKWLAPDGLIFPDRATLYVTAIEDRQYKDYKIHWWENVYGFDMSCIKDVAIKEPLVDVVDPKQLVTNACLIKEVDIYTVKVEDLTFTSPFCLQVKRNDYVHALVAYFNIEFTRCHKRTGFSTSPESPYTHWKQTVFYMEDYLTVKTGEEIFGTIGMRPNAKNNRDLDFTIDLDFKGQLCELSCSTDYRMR
Chain of PRMT8 (Q9NR22 whole entry, species assumed): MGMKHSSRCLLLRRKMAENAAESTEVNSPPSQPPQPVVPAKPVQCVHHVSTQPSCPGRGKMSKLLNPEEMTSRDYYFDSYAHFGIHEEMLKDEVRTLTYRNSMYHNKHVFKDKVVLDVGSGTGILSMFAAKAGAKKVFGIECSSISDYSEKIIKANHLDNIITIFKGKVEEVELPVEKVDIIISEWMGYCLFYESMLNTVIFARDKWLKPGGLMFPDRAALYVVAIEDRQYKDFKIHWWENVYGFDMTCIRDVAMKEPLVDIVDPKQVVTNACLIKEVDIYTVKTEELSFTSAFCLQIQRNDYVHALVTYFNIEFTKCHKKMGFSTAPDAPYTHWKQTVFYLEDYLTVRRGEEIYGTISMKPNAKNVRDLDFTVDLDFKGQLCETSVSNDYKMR

The inhibition is the drop in the measured response relative to a control, in per cent. By IC50 is commonly meant the concentration at which inhibition is half-maximal. Regarding `N=C(NCCCSC[C@H]1O[C@@H](n2cnc3c(NCCCc4ccccc4)ncnc32)[C@H](O)[C@@H]1O)NC1CCCCC1` [Compound 19e], the inhibition at 10 µM on PRMT1 was determined as 89%; on PRMT4, 44%; at PRMT6, 88%; at PRMT8, 79%; at PRMT3, 10%. In addition, the IC50 on PRMT1 (read-out: IC50 FOR PRMT1) was 0.75 ± 0.046 µM.
For `N=C(NCCCSC[C@H]1O[C@@H](n2cnc3c(NCCCc4ccccc4)ncnc32)[C@H](O)[C@@H]1O)NCC1CCC1` [Compound 1-89], the inhibition at 10 µM worked out at 80% on PRMT1; 44% at PRMT4; 90% on PRMT6; 85% at PRMT8; 7% against PRMT3. In addition, the concentration for half-maximal inhibition (IC50) on PRMT1 (read-out: IC50 FOR PRMT1) came out at 0.59 ± 0.073 µM.
On to `Nc1ncnc2c1ncn2[C@@H]1O[C@H](CSCCOc2ccc(-c3cccc(O)c3)cc2)[C@@H](O)[C@H]1O` [Compound 14f], for which the inhibition at 10 µM against PRMT1 amounted to 5%; at PRMT4 it was 62%; at PRMT6, 13%; on PRMT8, 40%; on PRMT3 it was 5%.
With `N=C(NCCCSC[C@H]1O[C@@H](n2cnc3c(NCCCc4ccccc4)ncnc32)[C@H](O)[C@@H]1O)NCc1ccccc1` [Compound 19k], the inhibition at 10 µM against PRMT1 worked out at 89%; at PRMT4, 44%; at PRMT6, 89%; at PRMT8, 83%; against PRMT3, 10%. Further, the IC50 on PRMT1 (read-out: IC50 FOR PRMT1) worked out at 0.48 ± 0.079 µM.
In the case of `Nc1ncnc2c1ncn2[C@@H]1O[C@H](CSCCCNC(=O)NCCc2ccccc2)[C@@H](O)[C@H]1O` [Compound 7r], the inhibition at 10 µM stood at 14% on PRMT1; 47% on PRMT4; 49% at PRMT6; 22% at PRMT8; 6% against PRMT3.
For the molecule `N=C(NCCCN)NCCCSC[C@H]1O[C@@H](n2cnc3c(NCCCc4ccccc4)ncnc32)[C@H](O)[C@@H]1O` [Compound 19i], the inhibition at 10 µM was found to be 89% at PRMT1; 37% at PRMT4; 79% at PRMT6; 74% at PRMT8; 13% on PRMT3. Also, the IC50 at PRMT1 (read-out: IC50 FOR PRMT1) turned out to be 1.3 ± 0.066 µM.
On to `Nc1ncnc2c1ncn2[C@@H]1O[C@H](CSCCNC(=O)NCCc2ccccc2)[C@@H](O)[C@H]1O` [Compound 7c, 1-(2-((((2S,3S,4R,5R)-5-(6-amino-9H-purin-9-yl)-3,4-dihydroxytetrahydrofuran-2-yl)methyl)thio)ethyl)-3-phenethylurea], for which the inhibition at 10 µM on PRMT1 was 8%; on PRMT4, 53%; on PRMT6 it was 22%; on PRMT8 it was -1%; against PRMT3, 6%.
For the molecule `COc1cc2nc(-c3ccccc3O)nc(NCCSC[C@H]3O[C@@H](n4cnc5c(N)ncnc54)[C@H](O)[C@@H]3O)c2cc1OC` [Compound 12h], the inhibition at 10 µM amounted to 1% on PRMT1; 36% on PRMT4; 16% at PRMT6; 18% on PRMT8; 12% against PRMT3.
For the molecule `N=C(NCCCSC[C@H]1O[C@@H](n2cnc3c(NCCCc4ccccc4)ncnc32)[C@H](O)[C@@H]1O)NCCCc1ccccc1` [Compound 19m], the inhibition at 10 µM on PRMT1 stood at 87%; at PRMT4, 58%; at PRMT6, 83%; on PRMT8, 85%; on PRMT3 it was 5%. Moreover, the IC50 at PRMT1 (read-out: IC50 FOR PRMT1) came out at 0.74 ± 0.08 µM.
Consider `N=C(NCCCSC[C@H]1O[C@@H](n2cnc3c(NCCCc4ccccc4)ncnc32)[C@H](O)[C@@H]1O)NC1CCC1` [Compound 19c], for which the inhibition at 10 µM against PRMT1 was 80%; on PRMT4, 50%; at PRMT6 it was 93%; at PRMT8, 91%; at PRMT3, 8%. The IC50 on PRMT1 (read-out: IC50 FOR PRMT1) was 0.55 ± 0.051 µM.
For `Nc1cccc(-c2cccc(CNCCSC[C@H]3O[C@@H](n4cnc5c(N)ncnc54)[C@H](O)[C@@H]3O)c2)c1` [Compound 10l], the inhibition at 10 µM was 7% against PRMT1; 100% on PRMT4; 53% at PRMT6; 62% at PRMT8; 8% against PRMT3.
Regarding `Nc1ncnc2c1ncn2[C@@H]1O[C@H](CSCCOc2ccc(-c3ccncc3)cc2)[C@@H](O)[C@H]1O` [Compound 14h], the inhibition at 10 µM turned out to be 10% against PRMT1; 48% on PRMT4; 6% on PRMT6; 15% at PRMT8; 8% against PRMT3.
Regarding `Nc1cccc(-c2ccc(CNC(=O)NCCSC[C@H]3O[C@@H](n4cnc5c(N)ncnc54)[C@H](O)[C@@H]3O)cc2)c1` [Compound 8b], the inhibition at 10 µM amounted to 7% against PRMT1; 43% at PRMT4; 79% at PRMT6; 0% on PRMT8; 5% at PRMT3.
On the same counts, the results for `Nc1ncnc2c1ncn2[C@@H]1O[C@H](CSCCCNCc2cccc(-c3ccc(O)cc3)c2)[C@@H](O)[C@H]1O` [Compound 10n] are 57%, 96%, 36%, 69% and 21%.
Consider `N=C(NCCCSC[C@H]1O[C@@H](n2cnc3c(N)ncnc32)[C@H](O)[C@@H]1O)Nc1cccc(-c2n[nH]cc2C(F)(F)F)c1` [Compound 6q], for which the inhibition at 10 µM amounted to 99% against PRMT1; 100% on PRMT4; 98% on PRMT6; 100% on PRMT8; 60% against PRMT3.
As to `N=C(NCCCSC[C@H]1O[C@@H](n2cnc3c(NCCCc4ccccc4)ncnc32)[C@H](O)[C@@H]1O)NC1CCCC1` [Compound 19d], the inhibition at 10 µM against PRMT1 came out at 90%; at PRMT4, 60%; at PRMT6, 91%; at PRMT8, 85%; on PRMT3, 8%. The IC50 at PRMT1 (read-out: IC50 FOR PRMT1) stood at 0.59 ± 0.071 µM.
Consider `N=C(NCCCSC[C@H]1O[C@@H](n2cnc3c(N)ncnc32)[C@H](O)[C@@H]1O)NCc1ccccc1` [Compound 5e], for which the inhibition at 10 µM at PRMT1 was 95%; on PRMT4 it was 97%; at PRMT6, 98%; on PRMT8 it was 97%; on PRMT3 it was 61%. Also, at PRMT1 (read-out: IC50[μM] | PRMT1), the IC50 turned out to be 0.21 ± 0.0066 µM.
For the molecule `Nc1ncnc2c1ncn2[C@@H]1O[C@H](CSCCNC(=O)NCCCc2ccccc2)[C@@H](O)[C@H]1O` [Compound 7b, 1-(2-((((2S,3S,4R,5R)-5-(6-amino-9H-purin-9-yl)-3,4-dihydroxytetrahydrofuran-2-yl)methyl)thio)ethyl)-3-(3-phenylpropyl)urea], the inhibition at 10 µM against PRMT1 is 13%; on PRMT4, 49%; on PRMT6, 7%; on PRMT8 it was -4%; against PRMT3 it was 5%.
In the case of `Nc1ncnc2c1ncn2[C@@H]1O[C@H](CSCCNCc2cccc(-c3ccc(O)cc3)c2)[C@@H](O)[C@H]1O` [Compound 10b], the inhibition at 10 µM on PRMT1 was 19%; on PRMT4, 100%; on PRMT6, 55%; on PRMT8, 67%; at PRMT3, 1%.
